Source: patent publication US10054581B1, “Inhibitors of notch signaling pathway and use thereof in treatment of cancers” (Ecole Polytechnique Federale de Lausanne (EPFL), priority 2011, dated 2018)

Test: Body weight changes in mice
Type: in vivo, mouse
Conditions: 25 mg/kg, 5 consecutive days
Procedure: C57B16 mice were intra peritoneal (i.p) injected with oil or 25 mg/kg of I3 or 10 mg/kg of CPA, once a day for 5-7 days. Mice were weighed using a weighing scale on day 0, day 3 and day 5. On day 8, intestinal tissue, spleen and thymus were harvested for analyses.
In in vitro culture assays, chemical compound 6-(4-Tert-Butylphenoxy)Pyridin-3-Amine (I3) was able to block Notch1 and Notch2 mediated pathway activation. Therefore, Applicants hypothesized that treatment of mice with 6-(4-Tert-Butylphenoxy)Pyridin-3-Amine (I3) may lead to a goblet cell metaplasia of the intestine. To test this hypothesis, mice were intra peritoneally (i.p) injected with 25 mg/kg of 6-(4-Tert-Butylphenoxy)Pyridin-3-Amine (I3) for 7 consecutive days. On day 8, animals were sacrificed and intestinal tissues were fixed and embedded in paraffin. Histological analyses were carried out using Alcian blue to stain for goblet cells. […] Similarly, the effect of 6-(4-Tert-Butylphenoxy)Pyridin-3-Amine (I3) on body weight changes was also monitored. Mice were injected for 5 consecutive days with 25 mg/kg of 6-(4-Tert-Butylphenoxy)Pyridin-3-Amine (I3) and the changes in body mass were recorded.

Compound: CC(C)(C)c1ccc(Oc2ccc(N)cn2)cc1 [I3, 6-(4-Tert-Butylphenoxy)Pyridin-3-Amine]
- body weight: did not cause a loss in the body weight
